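In this assay, cells in 96-well plates receive the compound at five concentrations for 48 hours. Endpoints are linearly interpolated between the surrounding concentrations. GI50: concentration for 50% inhibition of growth.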 Calls of active or inactive are those of the source. No stated cut-off is given here; in the data, active = GI50 up to about 1.1 µM and inactive = higher.
Assays:
Test in all cases: inhibition of tumour cell growth, NCI panel, 48 h
[1] = tested on: MOLT-4
[2] = tested on: UACC-257
[3] = tested on: NCI-H23
[4] = tested on: OVCAR-4
[5] = tested on: NCI-H226
[6] = tested on: SK-OV-3
[7] = tested on: HOP-62
[8] = tested on: NCI-H522
[9] = tested on: SK-MEL-5
[10] = tested on: Hs-578T
[11] = tested on: LOX IMVI
[12] = tested on: HCT-116
[13] = tested on: SF-295
[14] = tested on: HL-60
[15] = tested on: SNB-75
[16] = tested on: EKVX
[17] = tested on: A498
[18] = tested on: KM12
[19] = tested on: SR
[20] = tested on: SNB-19

| SMILES | GI50 [1] | GI50 [2] | GI50 [3] | GI50 [4] | GI50 [5] | GI50 [6] | GI50 [7] | GI50 [8] | GI50 [9] | GI50 [10] | GI50 [11] | GI50 [12] | GI50 [13] | GI50 [14] | GI50 [15] | GI50 [16] | GI50 [17] | GI50 [18] | GI50 [19] | GI50 [20] |
| --- | --- | --- | --- | --- | --- | --- | --- | --- | --- | --- | --- | --- | --- | --- | --- | --- | --- | --- | --- | --- |
| CCCCOC(=O)C1CC[C@H]2[C@@H]3CCc4cc(OC(=O)c5cccc6c(=O)c7ccccc7[nH]c56)ccc4[C@H]3CC[C@]12C (some centres not stated) | 8.81 µM (inactive) | 8.47 µM (inactive) | 8.95 µM (inactive) | 7.78 µM (inactive) | 11.4 µM (inactive) | 9.86 µM (inactive) | 9.35 µM (inactive) | 9.64 µM (inactive) | 6.46 µM (inactive) | 12.9 µM (inactive) | 8.83 µM (inactive) | 9.31 µM (inactive) | 8.53 µM (inactive) | 5.86 µM (inactive) | 10.4 µM (inactive) | 2.48 µM (inactive) | 8.83 µM (inactive) | 9.71 µM (inactive) | – | – |
| Cc1cccc2c(NCCN(C)C)c3cccc(C(=O)NCCN(C)C)c3nc12 | 0.0262 µM (active) | 0.693 µM (active) | 0.372 µM (active) | 0.207 µM (active) | 0.728 µM (active) | 0.226 µM (active) | 0.258 µM (active) | < 0.0486 µM (active) | 0.157 µM (active) | 0.495 µM (active) | – | 0.0673 µM (active) | 0.105 µM (active) | 0.24 µM (active) | 0.357 µM (active) | 0.383 µM (active) | 0.918 µM (active) | 0.0692 µM (active) | 0.0281 µM (active) | 0.413 µM (active) |
| Cc1nc2nc3c(ncn3COCCO)c(O)n2c1C(c1ccccc1)(c1ccccc1)c1ccccc1 | 8.2 µM (inactive) | 14.1 µM (inactive) | 4.63 µM (inactive) | 13.6 µM (inactive) | – | 15.9 µM (inactive) | 18.6 µM (inactive) | 12.6 µM (inactive) | 15.4 µM (inactive) | 21.2 µM (inactive) | 13.1 µM (inactive) | 15.1 µM (inactive) | 17.3 µM (inactive) | 14.1 µM (inactive) | 12.8 µM (inactive) | 19.4 µM (inactive) | 18.3 µM (inactive) | 12.2 µM (inactive) | – | 14.8 µM (inactive) |
| CN(C)Cc1cc(C(=O)/C=C/c2c(F)cccc2Cl)cc(CN(C)C)c1O | 11.1 µM (inactive) | 11.4 µM (inactive) | 14.9 µM (inactive) | 15.2 µM (inactive) | 13.5 µM (inactive) | 14.1 µM (inactive) | 12 µM (inactive) | – | 15.3 µM (inactive) | 17.5 µM (inactive) | 4.83 µM (inactive) | 4.48 µM (inactive) | 11.6 µM (inactive) | 3.02 µM (inactive) | 8.53 µM (inactive) | 12.8 µM (inactive) | 6.5 µM (inactive) | 12.8 µM (inactive) | – | 18.1 µM (inactive) |
| COP(=O)(O)/C=C/C(NC(=O)C(Cl)(Cl)Cl)c1ccccc1 (configuration not stated) | > 100 µM (inactive) | > 100 µM (inactive) | > 100 µM (inactive) | > 100 µM (inactive) | > 100 µM (inactive) | > 100 µM (inactive) | > 100 µM (inactive) | > 100 µM (inactive) | > 100 µM (inactive) | > 100 µM (inactive) | > 100 µM (inactive) | > 100 µM (inactive) | > 100 µM (inactive) | > 100 µM (inactive) | > 100 µM (inactive) | > 100 µM (inactive) | > 100 µM (inactive) | > 100 µM (inactive) | – | > 100 µM (inactive) |
| COc1cc2c(c(OC)c1OC)-c1cccc(=O)cc1C(NC(C)=O)CC2 (configuration not stated) | 0.0553 µM (active) | 0.0607 µM (active) | 0.0596 µM (active) | 32.4 µM (inactive) | 0.845 µM (active) | 0.485 µM (active) | 0.172 µM (active) | 0.0382 µM (active) | 0.0397 µM (active) | > 100 µM (inactive) | 0.0449 µM (active) | 0.055 µM (active) | 0.0792 µM (active) | 0.0208 µM (active) | 0.0391 µM (active) | > 100 µM (inactive) | 0.332 µM (active) | 0.0346 µM (active) | – | 0.748 µM (active) |
| O=C(O)c1cc(/C=C/c2cc(O)ccc2O)ccc1O | > 10 µM (inactive) | > 10 µM (inactive) | > 10 µM (inactive) | > 10 µM (inactive) | > 10 µM (inactive) | – | – | > 10 µM (inactive) | – | > 10 µM (inactive) | > 10 µM (inactive) | – | > 10 µM (inactive) | > 10 µM (inactive) | – | > 10 µM (inactive) | – | – | > 10 µM (inactive) | > 10 µM (inactive) |
| CC1(C)[N+]([O-])=[N+]([O-])C1(Br)c1ccccc1 (configuration not stated) | 45.4 µM (inactive) | 54.8 µM (inactive) | 80.9 µM (inactive) | 82.2 µM (inactive) | > 100 µM (inactive) | > 100 µM (inactive) | > 100 µM (inactive) | – | > 100 µM (inactive) | > 100 µM (inactive) | 48.1 µM (inactive) | > 100 µM (inactive) | 49.2 µM (inactive) | 33 µM (inactive) | > 100 µM (inactive) | > 100 µM (inactive) | – | 89.1 µM (inactive) | 43.5 µM (inactive) | > 100 µM (inactive) |
